Data set [1] can be described thus: Single-dose, dose escalation study Part 1: pharmacokinetics of plasma and urine DSCG in healthy subjects. The class given is in vivo, human. Conditions: same dose (40 mg). Here is the method: • 1. […] 200 mg oral sodium cromoglycate solution (commercially available product), oral administration. […] 200 mg oral sodium cromoglycate solution (commercially available product), oral administration.
Prior to each dosing day, subjects were admitted to the clinic in the morning for baseline (pre-dose) assessments. Subjects were required to remain in the clinic for 12 h after study drug administration on each dosing day. Treatment Visits were separated by a washout period of 2 to 5 days.
Urine DSCG levels were measured for total DSCG excretion in the urine, and the bioavailability of the DSCG was calculated from the measured levels.
Pharmacokinetic parameters and plasma concentrations are listed and summarized. The summary statistics are presented as the geometric mean, arithmetic mean, arithmetic standard deviation (SD), min, median, max and n. The geometric statistics are not presented for Tmax. Analysis of variance (ANOVA) including terms for subject and treatment are used to calculate point estimates, and confidence intervals (CI) for treatment differences with respect to PK parameters (90% CI) are calculated.

For data set [2] the following is noted: cited from earlier work.

The structures appear in SMILES notation. Where two headings read alike, the source gives them in different places.

Take `O=C(O)c1cc(=O)c2c(OCC(O)COc3cccc4oc(C(=O)O)cc(=O)c34)cccc2o1` [Cromolyn sodium, cromolyn sodium]: the “lung deposition with the 30 L device compared with the 40 L device, indicated by AUC data” value in data set [1] is listed as “surprisingly higher”. The oral bioavailability entry in data set [2] (listed as cromolyn sodium) is given as “less than 1%”; in data set [2] (listed as cromolyn) it was “about 1%”.
